Assay [1] concerns the target T1, Cholinesterase (Homo sapiens, UniProt P06276). The assay can be described thus: Inhibition of BChE (unknown origin).
Assay [2] concerns the target Cholinesterase (Equus caballus, UniProt P81908). Put plainly: Inhibition of equine BChE.
Assay [3] in a line: Selectivity index, ratio of IC50 for electric eel AChE to IC50 for equine BChE.
In assay [4] the target is Acetylcholinesterase (Electrophorus electricus, UniProt O42275). The assay can be described thus: Inhibition of electric eel AChE.
Sequence of Acetylcholinesterase (Electrophorus electricus, UniProt O42275) (O42275 whole entry): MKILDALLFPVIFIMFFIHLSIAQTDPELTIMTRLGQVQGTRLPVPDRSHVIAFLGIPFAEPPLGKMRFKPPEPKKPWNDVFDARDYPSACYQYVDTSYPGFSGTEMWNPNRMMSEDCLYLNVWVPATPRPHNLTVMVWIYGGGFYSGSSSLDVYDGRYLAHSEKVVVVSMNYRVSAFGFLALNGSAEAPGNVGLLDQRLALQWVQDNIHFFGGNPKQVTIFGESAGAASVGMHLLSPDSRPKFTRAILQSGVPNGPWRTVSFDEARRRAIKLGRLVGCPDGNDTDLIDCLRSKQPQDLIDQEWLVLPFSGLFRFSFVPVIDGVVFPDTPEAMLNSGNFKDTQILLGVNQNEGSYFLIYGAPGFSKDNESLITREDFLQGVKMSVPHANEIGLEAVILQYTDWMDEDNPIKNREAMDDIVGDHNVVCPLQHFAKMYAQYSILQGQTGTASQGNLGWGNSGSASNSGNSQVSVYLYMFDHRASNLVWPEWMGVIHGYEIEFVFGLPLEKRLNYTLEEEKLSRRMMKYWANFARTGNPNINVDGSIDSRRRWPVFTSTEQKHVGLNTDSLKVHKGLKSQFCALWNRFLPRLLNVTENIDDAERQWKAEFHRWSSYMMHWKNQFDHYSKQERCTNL
Assay [5] addresses T2, Acetylcholinesterase (Homo sapiens, UniProt P22303). The assay can be described thus: Inhibition of human AChE.
The target in assay [6] is Cholinesterases; ACHE & BCHE (Homo sapiens) (UniProt P06276+P22303). The assay can be described thus: Selectivity index, ratio of IC50 for AChE (unknown origin) to BChE (unknown origin). The format is protein assay.
Sequence of Cholinesterases; ACHE & BCHE (Homo sapiens) (P06276 whole entry, looked up): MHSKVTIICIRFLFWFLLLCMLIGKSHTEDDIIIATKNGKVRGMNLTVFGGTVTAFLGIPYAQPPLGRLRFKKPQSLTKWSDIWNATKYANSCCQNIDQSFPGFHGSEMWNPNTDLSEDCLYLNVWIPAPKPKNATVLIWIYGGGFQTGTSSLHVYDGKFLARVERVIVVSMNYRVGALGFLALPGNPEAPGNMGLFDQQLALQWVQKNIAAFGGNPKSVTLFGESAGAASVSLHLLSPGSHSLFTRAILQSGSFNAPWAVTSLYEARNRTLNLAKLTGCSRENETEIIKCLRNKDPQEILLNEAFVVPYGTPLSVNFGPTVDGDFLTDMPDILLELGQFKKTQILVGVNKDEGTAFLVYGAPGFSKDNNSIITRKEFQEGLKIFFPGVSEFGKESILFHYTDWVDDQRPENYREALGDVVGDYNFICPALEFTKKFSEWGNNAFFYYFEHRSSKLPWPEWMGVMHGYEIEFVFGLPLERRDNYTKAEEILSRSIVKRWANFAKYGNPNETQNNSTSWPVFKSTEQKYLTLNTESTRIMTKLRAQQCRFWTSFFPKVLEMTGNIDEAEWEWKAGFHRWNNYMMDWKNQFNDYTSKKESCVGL
Sequence of Cholinesterases; ACHE & BCHE (Homo sapiens) (P22303 whole entry, looked up): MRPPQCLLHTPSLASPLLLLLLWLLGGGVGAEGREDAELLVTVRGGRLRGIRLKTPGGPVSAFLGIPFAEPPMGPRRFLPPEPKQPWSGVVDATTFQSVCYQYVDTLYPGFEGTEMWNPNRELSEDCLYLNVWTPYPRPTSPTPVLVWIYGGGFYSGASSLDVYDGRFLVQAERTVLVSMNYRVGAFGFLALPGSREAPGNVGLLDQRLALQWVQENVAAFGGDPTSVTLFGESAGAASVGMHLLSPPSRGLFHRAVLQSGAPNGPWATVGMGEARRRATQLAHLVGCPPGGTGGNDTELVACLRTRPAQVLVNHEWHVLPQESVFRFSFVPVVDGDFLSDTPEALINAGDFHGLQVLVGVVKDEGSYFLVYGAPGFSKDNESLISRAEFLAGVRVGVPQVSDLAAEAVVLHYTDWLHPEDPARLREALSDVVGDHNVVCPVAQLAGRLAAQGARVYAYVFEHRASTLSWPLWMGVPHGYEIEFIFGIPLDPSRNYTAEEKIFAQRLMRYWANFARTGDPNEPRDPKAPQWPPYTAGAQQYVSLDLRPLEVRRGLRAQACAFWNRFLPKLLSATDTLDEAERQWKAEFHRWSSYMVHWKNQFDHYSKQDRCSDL
For assay [7], the target named is T2, Acetylcholinesterase. The assay can be described thus: Inhibition of recombinant human AChE.
Assay [8] deals with T1, Cholinesterase. The assay can be described thus: Inhibition of human BChE.

Some results are limits rather than exact numbers.

The values that follow come from ChEMBL document CHEMBL5214927, “Recent advance on carbamate-based cholinesterase inhibitors as potential multifunctional agents against Alzheimer's disease” (Eur J Med Chem, 2022).

Sequence of Cholinesterase (Equus caballus, UniProt P81908) (P81908 whole entry): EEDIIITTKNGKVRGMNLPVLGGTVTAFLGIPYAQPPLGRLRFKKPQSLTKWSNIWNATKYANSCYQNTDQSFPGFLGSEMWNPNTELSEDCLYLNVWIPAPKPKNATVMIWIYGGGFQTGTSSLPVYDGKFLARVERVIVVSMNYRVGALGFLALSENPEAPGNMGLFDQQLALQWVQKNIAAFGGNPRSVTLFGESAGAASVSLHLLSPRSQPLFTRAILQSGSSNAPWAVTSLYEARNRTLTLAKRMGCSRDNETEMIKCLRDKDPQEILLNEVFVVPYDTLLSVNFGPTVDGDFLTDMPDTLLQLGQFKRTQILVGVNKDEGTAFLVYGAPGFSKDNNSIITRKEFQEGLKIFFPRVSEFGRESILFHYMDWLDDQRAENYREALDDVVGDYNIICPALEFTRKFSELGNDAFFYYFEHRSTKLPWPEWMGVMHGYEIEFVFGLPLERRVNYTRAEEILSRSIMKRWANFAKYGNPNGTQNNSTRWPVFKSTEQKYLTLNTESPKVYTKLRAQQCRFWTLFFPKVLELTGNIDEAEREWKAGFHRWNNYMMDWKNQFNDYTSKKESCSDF
T2 sequence (P22303 whole entry): as the sequence (P22303 whole entry, looked up) above
T1 sequence (P06276 whole entry): as the sequence (P06276 whole entry, looked up) above

On to `COc1ccc2[nH]cc(CCC(=O)CCCCCCNC(=O)Oc3ccc4c(c3)CN3CCc5ccccc5C3N4C)c2c1` (stereo unspecified), for which the IC50 (in general, the point on the concentration scale where inhibition reaches its midpoint) in assay [1] was 0.102 µM.
With `CCCCCCCNC(=O)Oc1ccc2[nH]cc(CCNC(=O)c3ccccc3Nc3ccccc3)c2c1`, the IC50 in assay [2] is 0.007 µM; in assay [4] it was above 100 µM. Besides, the Ratio IC50 in assay [3] is above 10000.
Molecule `O=c1ccc2ccc(OCCCCSC(=S)N3CCCCC3)cc2[nH]1` came in with an IC50 in assay [2] of 0.16 µM.
Molecule `CCCCCCCCNC(=O)Oc1cc(OC(=O)NCCCCCCCC)cc(OC(=O)NCCCCCCCC)c1` came in with an IC50 in assay [4] of 0.015 µM.
`COC(=O)c1cc2c(OC(=O)N(C)C)cccc2[n+]([11CH3])c1` came in with an IC50 in assay [5] of 0.02 µM.
Regarding `CN1CC[C@@]2(C)c3cc(OC(=O)Nc4ccccc4)ccc3N(C)[C@@H]12`, the Ratio IC50 in assay [6] turned out to be 65.
In the case of `CC(C)c1ccc(NC(=O)Oc2ccc3c(c2)[C@]2(C)CCN[C@@H]2N3)cc1`, the Ratio IC50 in assay [6] was determined as 110.
For the molecule `CCN(C)C(=O)Oc1cc(OC(=O)N(C)CC)cc(C(O)CNC(C)(C)CC)c1` (stereo unspecified), the Ratio IC50 in assay [3] was above 862.
As to `CCCCCCCNC(=O)Oc1ccc2c(c1)CN1CCc3ccc(/N=N\c4ccccc4)cc3C1N2C` (stereo unspecified), the IC50 in assay [1] turned out to be 0.0445 µM.
Take `CCC(C)(C)NCC(O)c1cc(OC(=O)N(C)C)cc(OC(=O)N(C)C)c1` (stereo unspecified): in assay [3], the Ratio IC50 is above 796.
Consider `CC(C)C[C@@H](CS(=O)(=O)NCc1ccc(Cl)cc1)NC(=O)OCc1ccccc1`, for which the Ratio IC50 in assay [3] was 10.3.
On to `CN(C)C(=O)Oc1cccc(-c2coc3c4c(ccc3c2=O)OC(C)(C)C=C4)c1`, for which the IC50 in assay [2] turned out to be 0.68 µM; in assay [4], 33.6 µM. Moreover, the Ratio IC50 in assay [3] came out at 49.3.
Take `CCCCCCCNC(=O)Oc1ccc(F)c(-c2coc3c4c(ccc3c2=O)OC(C)(C)C=C4)c1`: the IC50 in assay [2] was 0.093 µM; in assay [4], 77.8 µM. In addition, the Ratio IC50 in assay [3] turned out to be 836.
Take `O=C(Nc1cccc([N+](=O)[O-])c1)OCCNc1c2ccccc2nc2ccccc12`: the results for the IC50 in assay [2] and in assay [4] were 0.017 µM and 0.0221 µM, respectively.
As to `Cc1ccccc1NC(=O)Oc1ccc2c(c1)[C@]1(C)CCO[C@@H]1O2`, in assay [1], the IC50 was above 30 µM.
On to `CC(C)c1ccc(NC(=O)Oc2ccc3c(c2)[C@]2(C)CCO[C@@H]2O3)cc1`, for which the IC50 in assay [1] was 0.027 µM.
For the molecule `CCCCCCCNC(=O)OCCN1CCN(CCCCCOc2ccc3ccc(=O)[nH]c3c2)CC1`, the results for the IC50 in assay [2] and in assay [4] were 1.8 µM and 0.39 µM, respectively.
`CC(C)c1ccc(NC(=O)Oc2ccc3c(c2)C2(C)COC(C2)O3)cc1` (stereo unspecified): the Ratio IC50 in assay [6] stood at 195.
With `O=C1CCOc2cc(OCCCCCSC(=S)N3CCCCC3)ccc21`, the IC50 in assay [7] amounted to 0.1 µM.
On to `CCN1/C(=C/C(C)=O)Sc2ccc(OC(=O)OCCOCCNC(=O)c3cc4c(OC(=O)N(C)C)cccc4[n+](C)c3)cc21`, for which the IC50 in assay [5] turned out to be 0.0814 µM; in assay [8], 0.482 µM.
`COC(=O)C1=CN([11CH3])c2cccc(OC(=O)N(C)C)c2C1` had an IC50 in assay [5] above 1000 µM.
The molecule `COc1cc(/C=C/C(=O)NCCCCNC(=O)Oc2ccc3c(c2)CN2CCc4ccccc4C2N3C)ccc1O` (stereo unspecified) showed an IC50 in assay [1] of 0.102 µM.
